# Laboratory results published in patent EP2992879B1, “PHARMACEUTICAL COMPOSITION FOR […] OF MOTOR NEURONS AND USE THEREOF” (China Medical University, priority 2012, dated 2014).
# Columns and labels:
# [1] = test system: SOD1-G93A transgenic mice; test: In vivo analysis: survival of SOD1-G93A transgenic mice; conditions: 60-day-old SOD1-G93A transgenic mice, oral administration, 500 mg/kg-body weight once daily; for Survival days: n = 8, untreated control 127 ± 6.11, 500 mg/kg
# Description: It has been known that about 20% of amyotrophic lateral sclerosis patients were associated with mutations in the gene that encodes Cu/Zn superoxide dismutase enzyme (SOD1), and G93A was the major mutation site. […] A SOD1-G93A transgenic mouse will show the symptoms of amyotrophic lateral sclerosis within about 90±5 days postnatal and will die within about 125±5 days postnatal.
# This example used the above SOD1-G93A transgenic mice as the object of study to perform in vivo analysis. SOD1-G93A transgenic mice (60-day-old) were treated with butylidenephthalide (purchased from ECHO Chemical) by oral administration, with a dosage of 500 mg/ kg-body weight once daily, wherein the unit "mg/kg-body weight" means the dosage required per kg-body weight. […]
# [2] = test system: SOD1-G93A transgenic mice; test: In vivo analysis: BBB Locomotor Rating Scale of the hind limbs; conditions: oral 500 mg/kg-body weight once daily from day 60
# Description: SOD1-G93A transgenic mice (60-day-old) were treated with butylidenephthalide by oral administration, with a dosage of 500 mg/ kg-body weight once daily. After the mice were treated for 30 days, the hind limbs of the mice were examined by BBB scale (Basso, Beattie, and Bresnahan (BBB) Locomotor Rating Scale). The BBB scale of the hind limbs of normal mice was 21 points, while the BBB scale of disease-progressed SOD1-G93A transgenic mice decreased from 21 to 0 points, wherein the lower scale represents a more severe action disorder in the mice. BBB scale is used to record the drug efficiency.
# [3] = test system: SOD1-G93A transgenic mice; test: Histochemical staining (hematoxylin and eosin): count of spinal motor neurons; format: in vivo; conditions: spinal cord, mice sacrificed in extremis
# Description: SOD1-G93A transgenic mice (60-day-old) were treated with butylidenephthalide by oral administration, with a dosage of 500 mg/ kg-body weight once daily. The SOD1-G93A transgenic mice in the experimental group were sacrificed in extremis, and the spinal cord was collected to perform hematoxylin and eosin stain. The number of motor neurons in the spinal cord was observed and counted by using a microscope, and the data was compared with that of the untreated control group.
# LC3-II [4] = test: Western blotting of autophagy biomarker in spinal cord; format: in vivo, mice; conditions: cervical, thoracic and lumbar spinal cord, compared with untreated control; oral 500 mg/kg-body weight once daily; β-actin internal control
# Description: SOD1-G93A transgenic mice (60-day-old) were treated with butylidenephthalide by oral administration, with a dosage of 500 mg/ kg-body weight once daily. It has been indicated by research that SOD1-G93A transgenic mice lost its spinal motor neurons because of the significant increase of autophagy during the last phase of amyotrophic lateral sclerosis (which can be seen in In vivo optical imaging of motor neuron autophagy in a mouse model of amyotrophic lateral sclerosis. Autophagy 7:9, 1-8; September 2011, which is entirely incorporated hereinto by reference). Therefore, in this example, the SOD1-G93A transgenic mice in experimental group were sacrificed in extremis to collect their spinal cord, and the proteins were extracted from the spinal cord to perform Western blotting and to analyze the protein biomarker of autophagy, LC3-II, which was used to determine whether autophagy occurred in the lumbar spinal motor neurons of the mice, wherein β-actin was used as an internal control.
# LC3-II [5] = test: Cellular experiment: Western blotting of LC3-II in NSCs after H2O2 stimulation of autophagy; format: cell-based, mouse; conditions: 10 µg/mL for 12 hours, then H2O2 (2500 µM/mL) for 12 hours
# Description: Cellular experiment was performed by using NSCs (neural stem cells) which can differentiate into mouse motor neurons to imitate mouse motor neurons.
# NSCs were incubated in a culture dish (10 cm in diameter). The cells were washed with PBS when grown to a density of 60% confluence, and treated with different concentrations of butylidenephthalide for 12 hours. The cells were then treated with H2O2 (2500 µM/mL) for 12 hours to stimulate the autophagy of cells. Then, the cells were collected and the proteins were extracted, and the protein expression level of LC3-II in NSC was analyzed by SDS-PAGE and Western blotting.
structure (smiles),measurement,setting,value
CCCC=C1OC(=O)c2ccccc21 [butylidenephthalide],life lengthened as compared to the untreated control group,[1],about 22 ± 2 days
same,Survival days,[1],about 149 ± 4.39 days
same,Survival days,[1]; listed as n-BP,149 ± 4.39 days
same,BBB scale of the hind limbs,[2]; after 135 days (decreased rapidly),16 to 0 points
same,BBB scale of the hind limbs,"[2]; from 125 to 135 days (decreased slowly), normal mice 21 points, control fell from 19 to 0 after 110 days",21 to 16 points
same,The number of motor neurons,"[3]; oral 500 mg/kg-body weight once daily from day 60, control 3 ± 3.1",24
same,The number of motor neurons,"[3]; oral 500 mg/kg-body weight once daily from day 60, control 3 ± 3.1, listed as n-BP",24 ± 4.2
same,protein expression level of LC3-II and pLC3-II,LC3-II [4],significantly decreased
same,protein expression level of LC3-II in NSC,LC3-II [5],decrease the protein expression level of LC3-II
